Positions of bridges follow the written chain, without caps; N, C: chain ends. Non-standard residues stand in square brackets, D forms with d. Residues, ends and D or L forms follow the SMILES beside them. *: point of attachment. Palmitoyl = CCCCCCCCCCCCCCCC(=O)*; AEEA = NCCOCCOCC(=O)O

Assay [1] deals with T1, CLR/RAMP2 receptor (Homo sapiens, UniProt O60895+Q16602).
T1 construct: host or cells: CHO-K1 cells
The assay is described as follows: CLR/RAMP2 arrestin receptor activation assay (agonist). As to conditions: CHO-K1, read-out: CLR/RAMP 2 Max Activity % of positive control, CHO-K1 cells; % of positive control (ADM). Format: cell-based.
Description: Using a receptor activation assay, the dose-dependent stimulatory response of peptide agonists of the present invention on a CLR/RAMP1 receptor, a CLR/RAMP2, or a CLR/RAMP3 receptor complex was determined. A cell line carrying the recombinant CLR/RAMP1, CLR/RAMP2, or a CLR/RAMP3 receptor was employed in the assay. Peptide agonist activities were tested, in duplicate, at 10 different concentrations, starting with 1.0 μM and serially diluted 3-fold, in DMSO. […] The CLR/RAMP1 cAMP, CLR/RAMP2 arrestin assays, and CLR/RAMP3 cAMP (DiscoveRx, Fremont, Calif.) were used.

For assay [2], the target named is CLR/RAMP1 receptor (Homo sapiens, UniProt O60894+Q16602). The assay is described as follows: CLR/RAMP1 cAMP receptor activation assay (agonist). Further details: host or cells: 1321N1 cells. Format: cell-based. As to conditions: 1321-N1, read-out: CLR/RAMP 1 Max Activity % of positive control, 1321N1 cells; % of positive control (β-CGRP).
CLR/RAMP1 receptor, sequence (Q16602 23-461): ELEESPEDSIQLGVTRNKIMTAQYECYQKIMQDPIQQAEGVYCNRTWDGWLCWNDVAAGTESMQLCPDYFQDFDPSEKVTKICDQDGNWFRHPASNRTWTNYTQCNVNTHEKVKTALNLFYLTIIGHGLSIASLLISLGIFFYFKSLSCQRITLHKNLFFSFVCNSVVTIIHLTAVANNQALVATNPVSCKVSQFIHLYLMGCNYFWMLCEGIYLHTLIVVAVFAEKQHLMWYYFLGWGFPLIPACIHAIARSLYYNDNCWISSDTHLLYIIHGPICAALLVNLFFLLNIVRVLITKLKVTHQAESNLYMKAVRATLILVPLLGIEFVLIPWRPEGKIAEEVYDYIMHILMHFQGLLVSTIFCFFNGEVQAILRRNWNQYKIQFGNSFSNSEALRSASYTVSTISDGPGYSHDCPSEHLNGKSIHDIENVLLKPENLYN
CLR/RAMP1 receptor, sequence (O60894 27-148): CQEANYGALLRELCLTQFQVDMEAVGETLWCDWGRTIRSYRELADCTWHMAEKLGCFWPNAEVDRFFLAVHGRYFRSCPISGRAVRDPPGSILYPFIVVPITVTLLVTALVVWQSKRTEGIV

T1 sequence (Q16602 23-461): as the sequence (Q16602 23-461) above
T1 sequence (O60895 43-175): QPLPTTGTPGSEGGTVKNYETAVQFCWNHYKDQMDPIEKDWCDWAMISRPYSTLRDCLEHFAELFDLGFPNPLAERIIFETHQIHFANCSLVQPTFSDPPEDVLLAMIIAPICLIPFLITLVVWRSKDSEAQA

Take `CCCCCCCCCCCCCCCC(=O)NCCCC[C@H](NC(=O)COCCOCCN)C(=O)NCC(=O)N[C@H]1CSSC[C@@H](C(=O)N[C@H](C(=O)N[C@H](C(=O)N[C@@H](CCC(N)=O)C(=O)N[C@@H](CCCCN)C(=O)N[C@@H](CC(C)C)C(=O)N[C@@H](C)C(=O)N[C@@H](Cc2c[nH]cn2)C(=O)N[C@@H](CCC(N)=O)C(=O)N[C@H](C(=O)N[C@@H](Cc2ccc(O)cc2)C(=O)N[C@@H](CCC(N)=O)C(=O)N[C@@H](Cc2ccccc2)C(=O)N[C@H](C(=O)N[C@@H](CC(=O)O)C(=O)N[C@@H](CCCCN)C(=O)N[C@@H](CC(=O)O)C(=O)N[C@@H](CCCCN)C(=O)N[C@@H](CC(=O)O)C(=O)N[C@@H](CC(N)=O)C(=O)N[C@H](C(=O)N[C@@H](C)C(=O)N2CCC[C@H]2C(=O)N[C@H](C(=O)N[C@@H](CC(=O)O)C(=O)N2CCC[C@H]2C(=O)N[C@@H](CO)C(=O)N[C@@H](CO)C(=O)N2CCC[C@H]2C(=O)N[C@@H](Cc2c[nH]cn2)C(=O)N[C@@H](CO)C(=O)N[C@@H](Cc2ccc(O)cc2)C(N)=O)C(C)C)C(C)C)[C@@H](C)O)[C@@H](C)CC)C(C)C)[C@@H](C)O)NC(=O)[C@H]([C@@H](C)O)NC(=O)CNC(=O)[C@H](Cc2ccccc2)NC(=O)[C@H](CCCNC(=N)N)NC1=O` [SEQ ID NO: 50]: the Emax in assay [1] turned out to be 87%; in assay [2], 65%.
Consider `CCCCCCCCCCCCCCCC(=O)NCCCC[C@H](NC(=O)COCCOCCN)C(=O)NCC(=O)N[C@H]1CSSC[C@@H](C(=O)N[C@H](C(=O)N[C@H](C(=O)N[C@@H](CCC(N)=O)C(=O)N[C@@H](CCCCN)C(=O)N[C@@H](CC(C)C)C(=O)N[C@@H](C)C(=O)N[C@@H](Cc2c[nH]cn2)C(=O)N[C@@H](CCC(N)=O)C(=O)N[C@H](C(=O)N[C@@H](Cc2ccc(O)cc2)C(=O)N[C@@H](CCC(N)=O)C(=O)N[C@@H](Cc2ccccc2)C(=O)N[C@H](C(=O)N[C@@H](CC(=O)O)C(=O)N[C@@H](CCCCN)C(=O)N[C@@H](CC(=O)O)C(=O)N[C@@H](CCCCN)C(=O)N[C@@H](CCC(N)=O)C(=O)N[C@@H](CC(=O)O)C(=O)N[C@@H](CO)C(=O)N[C@@H](C)C(=O)N2CCC[C@H]2C(=O)N[C@H](C(=O)N[C@@H](CC(=O)O)C(=O)N2CCC[C@H]2C(=O)N[C@@H](CO)C(=O)N[C@@H](CO)C(=O)N2CCC[C@H]2C(=O)N[C@@H](Cc2c[nH]cn2)C(=O)N[C@@H](CO)C(=O)N[C@@H](Cc2ccc(O)cc2)C(N)=O)C(C)C)[C@@H](C)O)[C@@H](C)CC)C(C)C)[C@@H](C)O)NC(=O)[C@H]([C@@H](C)O)NC(=O)CNC(=O)[C@H](Cc2ccccc2)NC(=O)[C@H](CCCNC(=N)N)NC1=O` [SEQ ID NO: 51] (H-[AEEA]K(Palmitoyl)GCRFGTCTVQKLAHQIYQFTDKDKQDSAPVDPSSPHSY-NH2; disulfide 4-9), for which the Emax in assay [1] amounted to 107%; in assay [2], 65%.
The matching figures for `CCCCCCCCCCCCCCCC(=O)NCCCC[C@H](NC(=O)COCCOCCN)C(=O)NCC(=O)N[C@H]1CSSC[C@@H](C(=O)N[C@H](C(=O)N[C@H](C(=O)N[C@@H](CCC(N)=O)C(=O)N[C@@H](CCCCN)C(=O)N[C@@H](CC(C)C)C(=O)N[C@@H](C)C(=O)N[C@@H](Cc2c[nH]cn2)C(=O)N[C@@H](CCC(N)=O)C(=O)N[C@H](C(=O)N[C@@H](Cc2ccc(O)cc2)C(=O)N[C@@H](CCC(N)=O)C(=O)N[C@@H](Cc2ccccc2)C(=O)N[C@H](C(=O)N[C@@H](CC(=O)O)C(=O)N[C@@H](CCCCN)C(=O)N[C@@H](CC(=O)O)C(=O)N[C@@H](CCCCN)C(=O)N[C@@H](CC(=O)O)C(=O)N[C@@H](CC(N)=O)C(=O)N[C@H](C(=O)N[C@@H](C)C(=O)N2CCC[C@H]2C(=O)N[C@@H](CCCNC(=N)N)C(=O)N[C@@H](CO)C(=O)N[C@@H](CCCCN)C(=O)N[C@@H](CO)C(=O)N[C@@H](CO)C(=O)N2CCC[C@H]2C(=O)N[C@@H](Cc2c[nH]cn2)C(=O)N[C@@H](CO)C(=O)N[C@@H](Cc2ccc(O)cc2)C(N)=O)C(C)C)[C@@H](C)O)[C@@H](C)CC)C(C)C)[C@@H](C)O)NC(=O)[C@H]([C@@H](C)O)NC(=O)CNC(=O)[C@H](Cc2ccccc2)NC(=O)[C@H](CCCNC(=N)N)NC1=O` [SEQ ID NO: 61]: 92% and 70%.
